Results on two molecules are retold here after BindingDB's records for doi:10.1021/jm060234e (Scientific Computing, 2006).

The experiment addresses T1, Progesterone receptor (Homo sapiens, UniProt P06401).
T1 sequence (P06401 whole entry): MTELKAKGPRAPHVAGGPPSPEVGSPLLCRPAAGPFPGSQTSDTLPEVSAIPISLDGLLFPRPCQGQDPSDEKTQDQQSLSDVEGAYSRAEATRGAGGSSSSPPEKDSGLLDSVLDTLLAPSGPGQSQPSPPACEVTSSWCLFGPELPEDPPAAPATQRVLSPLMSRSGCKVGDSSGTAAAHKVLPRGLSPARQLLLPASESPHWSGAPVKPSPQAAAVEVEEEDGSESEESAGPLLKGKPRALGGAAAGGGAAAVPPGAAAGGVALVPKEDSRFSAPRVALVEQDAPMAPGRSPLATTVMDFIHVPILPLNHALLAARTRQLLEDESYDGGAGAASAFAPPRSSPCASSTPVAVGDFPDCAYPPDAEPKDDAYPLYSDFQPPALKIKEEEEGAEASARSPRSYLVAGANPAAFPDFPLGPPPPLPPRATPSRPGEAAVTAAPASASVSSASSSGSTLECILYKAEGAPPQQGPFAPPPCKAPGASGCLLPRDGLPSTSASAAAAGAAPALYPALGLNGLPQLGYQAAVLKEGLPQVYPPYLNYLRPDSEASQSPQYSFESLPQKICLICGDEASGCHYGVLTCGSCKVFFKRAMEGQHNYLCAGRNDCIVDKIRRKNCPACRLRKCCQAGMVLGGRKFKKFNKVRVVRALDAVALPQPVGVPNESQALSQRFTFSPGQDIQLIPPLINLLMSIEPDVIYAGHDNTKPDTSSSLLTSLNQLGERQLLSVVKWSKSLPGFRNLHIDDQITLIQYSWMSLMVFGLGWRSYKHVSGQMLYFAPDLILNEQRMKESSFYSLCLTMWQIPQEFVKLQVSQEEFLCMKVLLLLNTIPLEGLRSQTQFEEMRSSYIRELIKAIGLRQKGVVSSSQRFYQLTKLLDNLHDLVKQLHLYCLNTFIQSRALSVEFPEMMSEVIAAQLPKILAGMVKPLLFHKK
The experiment is described as follows: Displacement of [3H]progesterone from Progesterone receptor. (In general: In a radioligand displacement assay an active substance lowers the binding of a labelled ligand.)

Regarding `CC1=CC(C)(C)Nc2ccc3c(c21)COc1c(F)cc(F)cc1-3` [7,9-difluoro-2,2,4-trimethyl-2,5-dihydro-1H-chromeno[3,4-f]quinoline], the affinity, expressed as Ki, was 13 nM. For the molecule `CC1=CC(C)(C)Nc2ccc3c(c21)Cc1c(F)cccc1-3` [10-Fluoro-1,3,3-trimethyl-4,11-dihydro-3H-indeno[2,1-f]quinoline], the affinity, expressed as Ki, was 15 nM.
